# Reference: the supplement of paper PMC10307832
# Columns and labels:
# Experiment in all cases: relative viability (nuclei count vs DMSO), 5 days (fraction); higher = more cells survive
# Ispinesib + Vorinostat = compound: Cc1ccc(C(=O)N(CCCN)[C@@H](c2nc3cc(Cl)ccc3c(=O)n2Cc2ccccc2)C(C)C)cc1 [Ispinesib] + O=C(CCCCCCC(=O)Nc1ccccc1)NO [Vorinostat] (partner 1 µM)
# Procedure, shortened: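 Relative viability equals treated-well nuclei counts divided by vehicle-well nuclei counts. Counts came from 4× images of lung cancer cell lines grown in 1536-well plates for 5 days after pin-tool dosing on the day after seeding. Dosing used one drug alone or a fixed anchor-drug dose plus five library-drug doses (not always all listed) in √10 steps, and values are medians of duplicate plates.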
# Linsitinib = compound: C[C@]1(O)C[C@@H](c2nc(-c3ccc4ccc(-c5ccccc5)nc4c3)c3c(N)nccn32)C1 [Linsitinib]
# Procedure, shortened: (§1)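 Lung cancer cell lines in 1536-well plates were kept overnight at 37 °C, then pinned with five library-drug doses (not always all listed) spaced by √10 on vehicle-anchored plates. After 5 days without medium change, cells were fixed, permeabilised and Hoechst-stained in one step, imaged at 4×, and nuclei were counted with MetaXpress. Viability is treated-well nuclei divided by vehicle-well nuclei, taken as the median over plates. Plates passed only with control CV below 25% and at least one doubling.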
# Ispinesib = compound: Cc1ccc(C(=O)N(CCCN)[C@@H](c2nc3cc(Cl)ccc3c(=O)n2Cc2ccccc2)C(C)C)cc1 [Ispinesib]
# Procedure, shortened: as §1
Cell Line,relative viability (Ispinesib + Vorinostat; first compound 0.001 µM),relative viability (Ispinesib + Vorinostat; first compound 0.003162 µM),relative viability (Ispinesib + Vorinostat; first compound 0.01 µM),relative viability (Ispinesib + Vorinostat; first compound 0.03162 µM),relative viability (Ispinesib + Vorinostat; first compound 0.1 µM),relative viability (Linsitinib; 0.01 µM),relative viability (Linsitinib; 0.03162 µM),relative viability (Linsitinib; 0.1 µM),relative viability (Linsitinib; 1 µM),"relative viability (Linsitinib; 1 µM, anchor plate)",relative viability (Ispinesib; 0.001 µM),relative viability (Ispinesib; 0.003162 µM),relative viability (Ispinesib; 0.01 µM),relative viability (Ispinesib; 0.03162 µM),relative viability (Ispinesib; 0.1 µM),relative viability (Linsitinib; 0.3162 µM)
NCI-H650,0.508,0.459,0.475,0.365,0.199,0.889,0.996,0.875,0.783,0.914,1.01,1.14,1.02,0.629,0.212,–
IA-LM,0.889,0.863,1.01,1.23,0.369,1.01,0.983,0.824,0.646,0.619,1.02,1.15,1.22,0.952,0.197,0.802
A-427,0.878,0.953,0.981,0.385,0.217,1.02,1.11,0.985,0.858,1.13,1.05,1.11,0.955,0.261,0.246,–
NCI-H2347,0.562,0.617,0.738,0.625,0.471,1.09,1.19,0.981,0.942,0.935,1.03,1.1,1.13,0.897,0.87,0.805
NCI-H1793,0.702,0.881,0.925,0.38,0.318,0.867,0.906,0.917,0.682,0.903,0.977,1,1.19,0.69,0.201,0.757
NCI-H1651,0.529,0.605,0.676,0.512,0.548,0.969,1,0.942,0.939,1.01,1.06,1.05,1.06,0.927,0.549,0.826
HCC-78,0.422,0.49,0.459,0.404,0.414,0.794,1.03,0.816,0.699,0.538,0.943,1.04,1.08,0.533,0.791,0.868
NCI-H23,0.542,0.619,0.647,0.419,0.21,1.06,0.862,0.903,0.578,0.631,0.859,1.06,1.04,0.298,0.226,0.509
LOU-NH91,0.91,1.04,0.939,0.247,0.236,0.873,0.943,0.991,0.801,0.942,0.962,1.09,1.05,0.646,0.287,1
LXF-289,0.758,0.772,0.837,0.478,0.217,1.04,0.974,1.04,0.977,0.976,0.98,1.02,1.13,0.773,0.178,0.768
NCI-H460,1.37,1.03,1.1,0.237,0.107,0.966,0.927,0.977,0.949,0.789,1.03,1.03,1.14,0.935,0.0826,0.872
NCI-H1792,–,–,–,–,–,0.932,0.897,0.712,0.33,0.571,1.18,1.31,0.995,0.492,0.329,0.455
EMC-BAC-2,0.539,0.745,0.419,0.147,0.365,0.922,0.984,0.931,0.602,0.833,1.04,1.26,1.11,0.395,0.421,0.725
CAL-12T,0.839,0.914,0.583,0.585,0.24,1.01,0.917,0.951,0.879,0.839,1.05,1.13,1.1,0.664,0.18,0.752
ChaGo-K-1,0.838,0.744,0.827,0.765,0.232,1.04,0.962,1.02,0.882,–,1.05,1.06,1.12,0.91,0.354,0.681
COR-L 105,0.933,0.51,1.04,0.49,0.522,0.884,0.864,0.875,0.761,0.96,1.1,0.901,0.766,0.397,0.34,0.709
NCI-H1944,0.671,0.496,0.575,0.345,0.152,1.03,1.08,0.949,0.535,1.2,1.02,0.997,1.07,0.425,0.306,0.579
NCI-H2009,0.859,0.732,0.746,0.72,0.213,0.974,0.994,1.06,0.979,1.18,1.03,1.02,1.04,0.606,0.481,0.669
NCI-H522,0.824,0.897,0.803,0.592,0.351,0.969,0.927,0.838,0.872,–,0.965,1.13,1,0.815,0.48,0.742
NCI-H441,0.838,0.909,0.91,0.548,0.256,0.951,0.981,0.986,0.636,0.519,1.06,1.1,0.765,0.272,0.297,0.497
NCI-H1623,–,–,–,–,–,0.889,0.955,0.889,0.815,–,1.07,1.03,1.05,1.02,0.722,–
NCI-H1437,0.967,0.837,0.922,0.878,0.219,1.01,0.963,0.997,1.01,1.02,1.07,1.11,1.14,0.995,0.247,0.945

Cell Line,relative viability (Ispinesib + Vorinostat; first compound 0.001 µM),relative viability (Ispinesib + Vorinostat; first compound 0.003162 µM),relative viability (Ispinesib + Vorinostat; first compound 0.01 µM),relative viability (Ispinesib + Vorinostat; first compound 0.03162 µM),relative viability (Ispinesib + Vorinostat; first compound 0.1 µM),relative viability (Linsitinib; 0.01 µM),relative viability (Linsitinib; 0.03162 µM),relative viability (Linsitinib; 0.1 µM),relative viability (Linsitinib; 1 µM),"relative viability (Linsitinib; 1 µM, anchor plate)",relative viability (Ispinesib; 0.001 µM),relative viability (Ispinesib; 0.003162 µM),relative viability (Ispinesib; 0.01 µM),relative viability (Ispinesib; 0.03162 µM),relative viability (Ispinesib; 0.1 µM),relative viability (Linsitinib; 0.3162 µM)
PC-14,0.773,0.569,0.343,0.103,0.134,0.963,0.929,0.981,0.867,0.959,1.06,1.09,0.898,0.404,0.121,0.895
LCLC-103H,0.827,0.86,0.845,0.515,0.352,1.01,0.89,0.976,0.879,1.06,1.05,1.07,1.04,0.691,0.601,0.823
COR-L23,0.422,0.448,0.342,0.14,0.175,0.975,1.04,1.07,0.998,0.89,1.11,1.04,1.19,0.512,0.171,0.911
H3255,0.79,1.09,0.804,0.479,0.413,0.872,0.933,0.927,0.896,0.972,0.999,1.15,1.02,0.701,0.335,0.74
NCI-H2126,0.754,0.867,0.932,0.789,0.289,1.01,0.971,1,0.71,0.715,0.978,1.08,1.06,0.992,0.564,0.818
HCC-366,0.353,0.512,0.351,0.216,0.0545,1,0.989,0.925,0.938,0.658,1.03,1.03,1.08,0.935,0.0315,0.917
LU99A,0.445,0.485,0.467,0.265,0.247,0.915,0.968,0.899,0.738,0.555,0.976,1.01,1.03,0.303,0.269,0.483
HOP-62,0.685,0.631,0.949,0.667,0.25,1,1.07,1.09,0.791,1.02,1.06,1.07,1.26,0.967,0.338,–
HCC-15,0.861,0.976,0.968,0.852,0.344,1.07,0.887,0.984,0.675,0.89,1.08,1.07,1.09,0.473,0.197,0.383
HARA,0.519,0.567,0.528,0.477,0.389,1.07,0.837,0.967,0.807,0.948,1.04,1.16,1.06,0.872,0.169,0.697
SK-MES-1,1.31,1.19,1.08,0.233,0.221,0.962,1.01,1.01,0.874,1.05,1.06,1.11,1.06,0.56,0.252,0.811
NCI-H1355,0.673,0.675,0.758,0.458,0.286,1.02,0.984,0.947,0.615,0.848,1.08,1.06,1.09,0.728,0.274,0.787
NCI-H727,1.24,1.31,–,1.05,1.06,0.961,0.866,0.895,0.591,0.305,1.16,1.09,1.14,0.845,0.543,0.461
NCI-H520,0.776,0.71,0.662,0.268,0.234,0.97,0.948,1.06,1.02,0.951,0.977,0.997,0.903,0.341,0.251,–
NCI-H838,0.738,0.726,0.739,0.625,0.238,0.975,0.905,0.906,0.667,1.06,1.05,1.03,1.08,0.747,0.343,0.493
EBC-1,–,–,–,–,–,0.991,0.967,1.05,0.93,0.903,1.03,1.13,1.03,0.336,0.231,0.778
NCI-H1703,–,–,–,–,–,0.881,–,0.873,0.492,0.9,1.28,0.88,0.6,0.163,0.137,0.577
NCI-H1563,–,–,–,–,–,1.03,0.924,1.09,0.93,1.22,1.13,0.97,0.938,0.927,0.772,1.3
NCI-H1299,–,–,–,–,–,1.01,0.999,1.02,1.02,0.977,1.05,1.05,1.07,1.05,0.461,0.918
A549,–,–,–,–,–,0.929,0.978,0.963,0.615,0.601,1.1,0.983,1.31,0.568,0.109,0.729
Calu-6,–,–,–,–,–,0.946,0.892,1.01,0.857,0.96,1.15,0.996,0.689,0.18,0.19,0.862
